Measured values reported in ChEMBL document CHEMBL1201862, “PubChem BioAssay data set” (2004).
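Compound exposure: 48 hours, 5 concentrations, 96-well plates. Abbreviation: GI50, concentration required for 50% inhibition of growth.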 The source made the active and inactive calls. Cut-off read from the data, not from the text of the source: active = GI50 up to about 1.1 µM and inactive = higher.

Tests used:
Experiment in all cases: NCI-60 cell line screen, 48 h
[1] = system: MOLT-4
[2] = system: RPMI-8226
[3] = system: SN12C
[4] = system: MDA-N
[5] = system: HOP-62
[6] = system: 786-0
[7] = system: UACC-62
[8] = system: K562
[9] = system: U-251
[10] = system: A498
[11] = system: SNB-19
[12] = system: M14
[13] = system: EKVX
[14] = system: SK-MEL-5
[15] = system: NCI/ADR-RES
[16] = system: UACC-257
[17] = system: ACHN
[18] = system: HT-29
[19] = system: SF-268
[20] = system: OVCAR-4

SMILES	GI50 [1]	GI50 [2]	GI50 [3]	GI50 [4]	GI50 [5]	GI50 [6]	GI50 [7]	GI50 [8]	GI50 [9]	GI50 [10]	GI50 [11]	GI50 [12]	GI50 [13]	GI50 [14]	GI50 [15]	GI50 [16]	GI50 [17]	GI50 [18]	GI50 [19]	GI50 [20]
O=C1C=C(c2ccccc2)OC1C1Sc2ccccc2NC1=O (stereo not given)	10.6 µM (inactive)	3.66 µM (inactive)	9.23 µM (inactive)	4.48 µM (inactive)	1.04 µM (active)	5.83 µM (inactive)	11.9 µM (inactive)	3.3 µM (inactive)	4.01 µM (inactive)	7.89 µM (inactive)	4.08 µM (inactive)	8.67 µM (inactive)	14 µM (inactive)	9.51 µM (inactive)	34.5 µM (inactive)	7.6 µM (inactive)	4.9 µM (inactive)	11.5 µM (inactive)	7.71 µM (inactive)	18.7 µM (inactive)
CCOC(=O)/C=C(/C(=O)OCC)n1ccc(=O)n(Cc2cnnn2COCCOC(C)=O)c1=O	4.51 µM (inactive)	10.9 µM (inactive)	22.1 µM (inactive)	23.2 µM (inactive)	> 73.1 µM (inactive)	10 µM (inactive)	17.3 µM (inactive)	4.05 µM (inactive)	17.9 µM (inactive)	24 µM (inactive)	> 31.6 µM (inactive)	17.1 µM (inactive)	16.5 µM (inactive)	19.1 µM (inactive)	21.9 µM (inactive)	16.8 µM (inactive)	8.73 µM (inactive)	17.5 µM (inactive)	20 µM (inactive)	20 µM (inactive)
COC(=O)C(=O)C(C(=O)C(=O)Nc1ccccc1OC)c1nc2ccc([N+](=O)[O-])cc2nc1O (stereo not given)	> 100 µM (inactive)	> 100 µM (inactive)	> 100 µM (inactive)	32.7 µM (inactive)	> 100 µM (inactive)	> 100 µM (inactive)	> 100 µM (inactive)	> 100 µM (inactive)	> 100 µM (inactive)	> 100 µM (inactive)	23.2 µM (inactive)	> 100 µM (inactive)	45.5 µM (inactive)	> 100 µM (inactive)	> 100 µM (inactive)	> 100 µM (inactive)	> 100 µM (inactive)	> 100 µM (inactive)	> 100 µM (inactive)	83.8 µM (inactive)
O=C(O)/C=C(/CC(=O)O)C(=O)O	19.1 µM (inactive)	14.9 µM (inactive)	19.4 µM (inactive)	22.1 µM (inactive)	16.7 µM (inactive)	17.5 µM (inactive)	18.2 µM (inactive)	19.2 µM (inactive)	19.4 µM (inactive)	16.3 µM (inactive)	22.2 µM (inactive)	18.7 µM (inactive)	19.3 µM (inactive)	21 µM (inactive)	21 µM (inactive)	33.1 µM (inactive)	18.1 µM (inactive)	21.8 µM (inactive)	19 µM (inactive)	25.8 µM (inactive)
